Measurements as given in PMC10716780, “The multistep oxidation of cholesterol to pregnenolone by human cytochrome P450 11A1 is highly processive” (The Journal of Biological Chemistry, 2023).

Legend:
human P450 11A1 [1] = biological target: T1, human P450 11A1 (Homo sapiens, UniProt P05108); assay: Stopped-flow ketoconazole trap, koff and binding rate measurements; conditions: for koff: read-out: koff of P450-sterol complex, 2 μM P450 11A1 + 2 μM steroid mixed with 20 μM ketoconazole, 23 °C, without Adx
T1 construct: M A S T R S P R P F N E I P S P G D N; Met-Ala (N-terminal start residues in place of the transit peptide and Ile40) (N); made in house; host or cells: E. coli C41(DE3) with GroES/GroEL, vector pET23C(+)
T1 sequence (P05108 41-521 limits assumed): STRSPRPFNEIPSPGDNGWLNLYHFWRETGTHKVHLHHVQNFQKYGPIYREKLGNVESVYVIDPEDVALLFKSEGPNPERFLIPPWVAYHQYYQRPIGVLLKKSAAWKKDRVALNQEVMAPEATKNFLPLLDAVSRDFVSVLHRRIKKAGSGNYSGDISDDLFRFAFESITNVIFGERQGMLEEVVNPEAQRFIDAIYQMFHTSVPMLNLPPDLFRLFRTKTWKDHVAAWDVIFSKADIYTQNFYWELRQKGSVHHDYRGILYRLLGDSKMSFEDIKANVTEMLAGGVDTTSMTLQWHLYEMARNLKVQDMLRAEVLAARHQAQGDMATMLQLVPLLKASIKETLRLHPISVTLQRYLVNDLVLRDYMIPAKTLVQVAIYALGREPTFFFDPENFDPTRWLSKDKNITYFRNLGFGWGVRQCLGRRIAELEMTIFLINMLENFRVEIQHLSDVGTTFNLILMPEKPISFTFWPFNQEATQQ
Protocol: Interaction of the azole nitrogen atom with the P450 heme produces a bathochromic (“type II”) spectral shift (to ∼430 nm)—an inverse effect of the binding of substrate.
Measurement of kon rate(s) was not performed because the sterols are delivered in a solution of HPCD, from which the dissociation rate is not known.
Determinations of koff rates were performed as previously described ([33]).

bovine P450 11A1 [2] = tested on: bovine P450 11A1; design: method as in PMID 217878; conditions: equilibrium dialysis, bovine P450 11A1 ref 26; cited from earlier work
human P450 11A1 [3] = biological target: T2, human P450 11A1 (Homo sapiens, UniProt P05108); assay: Kinetic modeling of single-turnover reactions (KinTek Explorer); format: biochemical; design: M A S T R S P R P F N E I P S P G D N; Met-Ala (N-terminal start residues in place of the transit peptide and Ile40) (N); made in house; host or cells: E. coli (P450 11A1 in C41(DE3); Adx and AdR in E. coli); conditions: for k^+ of oxidation step of enzyme-bound sterol, high Adx: high Adx (50 μM); for k^+ of oxidation step of enzyme-bound sterol, high Adx / k^+ of oxidation step of enzyme-bound sterol, low Adx: adjusted to fit single-turnover data; for k^+ of oxidation step of enzyme-bound sterol, low Adx: low Adx (5 μM)
T2 sequence (P05108 41-521 limits assumed): T1 sequence (P05108 41-521 limits assumed)
T2 sequence (P00257 59-186 partner): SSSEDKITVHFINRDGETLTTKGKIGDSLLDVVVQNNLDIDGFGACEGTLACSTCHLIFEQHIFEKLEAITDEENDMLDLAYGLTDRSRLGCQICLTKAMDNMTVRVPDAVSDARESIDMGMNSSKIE
Text: A minimal kinetic model was assembled to fit the data of the single-turnover reactions (Fig. 9) using the parameters listed in Table 2 (Fig. 14). […] Each oxidation reaction is irreversible, and thus the rates of the reverse reactions (k-2, k-4, k-6) were set to zero. The single-turnover data (Fig. 9) were fit to a single exponential to calculate the first-order decay of cholesterol, that is, the rate of cholesterol 22R-hydroxylation (k2). […] The rate of 20R-hydroxylation of 22R-OH cholesterol (k4) was estimated similarly to k2 from exponential fitting of first-order formation of the 20R,22R-(OH)2 sterol from the 22R-OH sterol.
Data were imported into KinTek Explorer software (v. 11.01, KinTek, https://kintekcorp.com/software) ([63]) as txt files and processed using an Apple computer (operating system 11.6.2). The indicated kinetic model (Table 2) was used with the enzyme and substrate concentrations, first estimating the rate of disappearance of the substrate cholesterol.

bovine P450 11A1 [4] = tested on: bovine P450 11A1; design: method as in PMID 7056749; conditions: bovine P450 11A1, within dead time of stopped-flow ref 12; cited from earlier work
human P450 11A1 [5] = tested on: human P450 11A1; design: method as in PMID 33271253; conditions: surface plasmon resonance ref 46; cited from earlier work
[6] = read-out: k^+ for ligand binding to P450 11A1 (kon) used in model, set to the value determined for P450 11A1 and ketoconazole
[7] = read-out: k^− for ligand dissociation (koff) used in model, values measured by stopped-flow spectroscopy

Row | k^+ for ligand binding to P450 11A1 (kon) used in model (human P450 11A1 [3]; set to the value determined for P450 11A1 and ketoconazole, listed as R) [M⁻¹ s⁻¹] | kon (human P450 11A1 [3]; set to the value determined for P450 11A1 and ketoconazole, read-out: k^+ for ligand binding to P450 11A1 (kon) used in model) [M⁻¹ s⁻¹] | koff (human P450 11A1 [3]; values measured by stopped-flow spectroscopy, read-out: k^− for ligand dissociation (koff) used in model) [s⁻¹] | SMILES | koff of P450-sterol complex (human P450 11A1 [1]; 2 μM P450 11A1 + 2 μM steroid mixed with 20 μM ketoconazole, 23 °C, without Adx) [s⁻¹] | koff (human P450 11A1 [1]) [s⁻¹] | Kd (bovine P450 11A1 [2]) [nM] | k^+ of oxidation step of enzyme-bound sterol, high Adx (human P450 11A1 [3]) [s⁻¹] | k^+ of oxidation step of enzyme-bound sterol, low Adx (human P450 11A1 [3]) [s⁻¹] | kon (human P450 11A1 [3]; [6]) [M⁻¹ s⁻¹] | koff (human P450 11A1 [3]; [7]) [s⁻¹] | k^+ for ligand binding to P450 11A1 (kon) used in model (human P450 11A1 [3]; set to the value determined for P450 11A1 and ketoconazole, listed as P) [M⁻¹ s⁻¹] | k^− for ligand dissociation (koff) used in model (human P450 11A1 [3]; values measured by stopped-flow spectroscopy, listed as P) [s⁻¹] | rates of binding and dissociation (bovine P450 11A1 [4]) [s⁻¹] | koff (human P450 11A1 [3]; read-out: k^− for ligand dissociation (koff) used in model) [s⁻¹] | k^+ for ligand binding to P450 11A1 (kon) used in model (human P450 11A1 [3]; set to the value determined for P450 11A1 and ketoconazole, listed as Q) [M⁻¹ s⁻¹] | observed binding rate (human P450 11A1 [1]; 20 μM final concentration, in HPCD) [s⁻¹] | apparent kon slower than kon of ketoconazole to unliganded P450 (human P450 11A1 [1]; in the presence of HPCD) [fold] | kon (human P450 11A1 [1]; read-out: apparent kon) [M⁻¹ s⁻¹] | decrease in Kd of P450 11A1-Adx complex in the presence of cholesterol (human P450 11A1 [5]) [fold] | k^+ for ligand binding to P450 11A1 (kon) used in model (human P450 11A1 [3]; set to the value determined for P450 11A1 and ketoconazole, listed as S) [M⁻¹ s⁻¹]
1 |  |  |  | CC(C)CC[C@@H](O)[C@@H](C)[C@H]1CC[C@H]2[C@@H]3CC=C4C[C@@H](O)CC[C@]4(C)[C@H]3CC[C@]12C [22R-OH Chol, 22R-hydroxycholesterol] | 0.044 ± 0.001 | 0.04 | 4.9 | 1.5 | 0.4 | 500000 | 0.04 | 530000 | 0.044 |  |  |  |  |  |  |  | 
2 |  |  |  | CC(C)CC[C@@H](O)[C@](C)(O)[C@H]1CC[C@H]2[C@@H]3CC=C4C[C@@H](O)CC[C@]4(C)[C@H]3CC[C@]12C [20R,22R-(OH)2 Chol, (20R,22R)-Cholest-5-ene-3β,20,22-triol] |  |  | 81 | 1.7 | 0.55 | 500000 |  |  |  | > 300 | 0.39 | 530000 |  |  |  |  | 
3 | 530000 | 500000 | 0.55 | CC(=O)[C@H]1CC[C@H]2[C@@H]3CC=C4C[C@@H](O)CC[C@]4(C)[C@H]3CC[C@]12C [Pregnenolone] |  |  |  |  |  |  |  |  |  |  |  |  |  |  |  |  | 
4 |  |  |  | CC(C)CCC[C@@H](C)[C@H]1CC[C@H]2[C@@H]3CC=C4C[C@@H](O)CC[C@]4(C)[C@H]3CC[C@]12C [Cholesterol] |  | 0.24 ± 0.01 |  | 0.12 | 0.04 | 500000 | 0.24 |  |  | > 300 |  |  | 0.05 | > 200 | 2500 | ~3 | 530000
